The source of these data is patent US10688093B2, “Methods, compositions, and uses of novel Fyn kinase inhibitors” (priority 2015, dated 2020).

Sequence of full-length recombinant human FYN A (P06241 whole entry): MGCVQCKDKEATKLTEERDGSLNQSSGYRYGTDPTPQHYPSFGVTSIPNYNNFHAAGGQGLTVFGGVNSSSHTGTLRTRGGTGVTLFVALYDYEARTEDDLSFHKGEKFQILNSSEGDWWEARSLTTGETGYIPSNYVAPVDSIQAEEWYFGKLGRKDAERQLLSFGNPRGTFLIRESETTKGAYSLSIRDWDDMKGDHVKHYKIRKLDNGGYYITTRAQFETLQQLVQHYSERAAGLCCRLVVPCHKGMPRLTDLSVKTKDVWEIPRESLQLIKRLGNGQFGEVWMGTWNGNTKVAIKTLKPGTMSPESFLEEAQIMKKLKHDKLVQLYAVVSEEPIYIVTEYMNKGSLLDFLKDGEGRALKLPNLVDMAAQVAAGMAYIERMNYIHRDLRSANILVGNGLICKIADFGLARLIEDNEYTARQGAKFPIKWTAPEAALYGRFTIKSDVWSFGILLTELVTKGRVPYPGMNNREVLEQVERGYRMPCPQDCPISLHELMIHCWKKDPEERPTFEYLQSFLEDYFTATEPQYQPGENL

The first experiment concerns the target full-length recombinant human FYN A (Homo sapiens (Human), UniProt P06241). Put plainly: ADP-Glo Kinase Assay of FYN kinase inhibition. It is filed as biochemical. The following applies: primary screen, initial compounds. In outline: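 GST-tagged full-length FYN A (baculovirus, Sf9) at 3 pg preincubated 30 min RT with compound (10-point 3-fold series from 10 μM) in Tris pH 7.5/MgCl2 buffer. 12-mer tyrosine peptide plus 12.5 pmol ATP added, 90 min RT; ADP measured by ADP-Glo luminescence, IC50 from dose-response.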
With `COc1cc(-c2cnc3ccc(-c4cccc(NC(C)=O)c4)nn23)ccc1O` [Compound 292, N-[3-[3-(4-hydroxy-3-methoxy-phenyl)imidazo [1,2-b]pyridazin-6-yl]phenyl] acetamide], the 50% inhibitory concentration (IC50) was 102 nM.

`COc1cccc(-c2cnc(N)c(-c3cc(OC)c(OC)c(OC)c3)c2)c1` [382_0087_4140, 5-(3-methoxyphenyl)-3-(3,4,5-trimethoxyphenyl) pyridin-2-amine]: the IC50 came out at 9500 nM.

On to `COc1cc(-c2cnc3ccc(-c4cccc(O)c4)nn23)ccc1O` [Compound 399, 4-[6-(3-hydroxyphenyl)imidazo[1,2-b]pyridazin-3-yl]-2-methoxy-phenol], for which the concentration for half-maximal inhibition (IC50) came to 295 nM.

For `COc1cc(-c2cnc3ccc(-c4cccc(C(F)(F)F)c4)nn23)ccc1O` [Compound 466, 2-methoxy-4-[6-[3-(trifluoro-methyl)phenyl]imidazo[1,2-b]pyridazin-3-yl]phenol], the concentration for half-maximal inhibition (IC50) is 1080 nM.

As for `CCC(CO)Nc1cncc(-c2ccc(O)cc2)n1` (stereo not shown) [035_0153_0080, 4-[6-[1-(hydroxymethyl)propylamino]pyrazin-2-yl]phenol], the half-inhibitory concentration (IC50) was 15300 nM.

Regarding `Oc1cccc(-c2cnc3ccc(C4CC4)nn23)c1` [Compound 471, 3-(6-cyclo-propylimidazo[1,2-b]pyridazin-3-yl)phenol], the IC50 was 1890 nM.

In the case of `CC(=O)c1cccc(-c2cnc3ccc(-c4ccncc4)nn23)c1` [Compound 413, 1-[3-[6-(4-pyridyl)imidazo [1,2-b]pyridazin-3-yl]phenyl] ethanone], the concentration for half-maximal inhibition (IC50) was found to be 371 nM.

As to `Fc1ccc(-c2ccc3ncc(-c4ccc5c(c4)OCO5)n3n2)cc1` [Compound 415, 3-(1,3-benzodioxol-5-yl)-6-(4-fluorophenyl) imidazo[1,2-b]pyridazine], the 50% inhibitory concentration (IC50) was found to be 7600 nM.

Regarding `COc1ccc(-c2cn3c(-c4ccc(O)cc4)cnc3cn2)cn1` [Compound 212, 4-[6-(6-methoxy-3-pyridyl)imidazo [1,2-a]pyrazin-3-yl]phenol], the concentration for half-maximal inhibition (IC50) was 1980 nM.

`c1cncc(-c2cn3c(-c4ccsc4)cnc3cn2)c1` [388_0074_0071, 6-(3-pyridyl)-3-(3-thienyl)imidazo [1,2-a]pyrazine]: the IC50 stood at 4340 nM.

With `CC(=O)c1cccc(-c2cnc3ccc(-c4cccc(C(N)=O)c4)nn23)c1` [Compound 380, 3-[3-(3-acetylphenyl)imidazo[1,2-b]pyridazin-6-yl]benzamide], the IC50 came out at 519 nM.

`Nc1ccc(-c2cn3c(-c4ccsc4)cnc3cn2)cn1` [Compound 226, 5-[3-(3-thienyl)imidazo [1,2-a]pyrazin-6-yl]pyridin-2-amine]: the IC50 was 2460 nM.

For `CN(C)C(=O)c1cccc(-c2cnc3sc(NC4CCCCC4)nn23)c1` [Compound 251, 3-[2-(cyclo-hexylamino)imidazo[2,1-a] [1,3,4]thiadiazol-5-yl]-N,N-dimethyl-benzamide], the half-inhibitory concentration (IC50) was 718 nM.

On to `CCCNc1ccc2ncc(-c3ccc(C(=O)O)cc3)n2n1` [229_0226_0140, 4-[6-(propylamino)imidazo[1,2-b]pyridazin-3-yl]benzoic acid], for which the half-inhibitory concentration (IC50) stood at 9770 nM.

In the case of `CN(C)CCNC(=O)c1cccc(-c2cnc3ccc(-c4ccc(CO)cc4)nn23)c1` [Compound 297, N-(2-dimethylamino-ethyl)-3-[6-[4-(hydroxymethyl)phenyl]imidazo [1,2-b]pyridazin-3-yl]benzamide], the IC50 is 1480 nM.

In the case of `CN(C)CCCOc1ccc(-c2cn3c(-c4ccc5c(c4)OCO5)cnc3cn2)cn1` [Compound 231, 3-[[5-[3-(1,3-benzodioxol-5-yl)imidazo[1,2-a]pyrazin-6-yl]-2-pyridyl]oxy]-N,N-dimethyl-propan-1-amine], the 50% inhibitory concentration (IC50) turned out to be 9850 nM.

In the case of `COCCNc1ccc2ncc(-c3ccc(F)cc3)n2n1` [229_0033_0339, 3-(4-fluoro-phenyl)-N-(2-methoxyethyl) imidazo[1,2-b]pyridazin-6-amine], the IC50 is 4000 nM.

Take `CN(C)C(=O)c1cccc(-c2cnc3sc(NCc4ccco4)nn23)c1` [Compound 289, 3-[2-(2-furylmethylamino)imidazo[2,1-p] [1,3,4]thiadiazol-5-yl]-N,N-dimethyl-benzamide]: the half-inhibitory concentration (IC50) is 2460 nM.

On to `OCc1ccc(-c2ccnc3[nH]nc(-c4cccc(F)c4)c23)cc1` [Compound 497], for which the IC50 worked out at 3880 nM.

Take `COc1cc(-c2n[nH]c3nccc(-c4cccc(NS(C)(=O)=O)c4)c23)cc(OC)c1OC` [Compound 515, N-[3-[3-(3,4,5-trimethoxy-phenyl)-1H-pyrazolo[3,4-b]pyridin-4-yl]phenyl] methane-sulfonamide]: the IC50 is 12800 nM.

Take `CN(C)CCCOc1ccc(-c2cnc(N)c(-c3cccc(N(C)C)c3)c2)cn1` [382_0135_0002, 3-[3-(dimethylamino)phenyl]-5-[6-[3-(dimethyl-amino)propoxy]-3-pyridyl]pyridin-2-amine]: the 50% inhibitory concentration (IC50) amounted to 4660 nM.

For the compound `COc1cccc(-c2ccc3c(-c4ccc(C(=O)NCCCN(C)C)cc4)n[nH]c3n2)c1F` [267_0180_7936, N-[3-(dimethylamino)propyl]-4-[6-(2-fluoro-3-methoxy-phenyl)-1H-pyrazolo[3,4-b]pyridin-3-yl]benzamide], the half-inhibitory concentration (IC50) amounted to 7340 nM.

Consider `COc1cc(-c2cc(-c3ccc(F)cc3)cnc2N)cc(OC)c1OC` [382_0087_0339, 5-(4-fluoro-phenyl)-3-(3,4,5-trimethoxy-phenyl)pyridin-2-amine], for which the IC50 worked out at 2860 nM.

For `O=C(NCCO)c1cccc(-c2ccc3ncc(-c4cccc(Cl)c4)n3n2)c1` [Compound 483, 3-[3-(3-chlorophenyl)imidazo[1,2-b]pyridazin-6-yl]-N-(2-hydroxyethyl) benzamide], the half-maximal inhibitory concentration (IC50) came out at 30000 nM.

Take `COc1cc(-c2cc(-c3cccc(C(=O)NCCO)c3)cnc2N)cc(OC)c1OC` [382_0087_0192, 3-[6-amino-5-(3,4,5-trimethoxy-phenyl)-3-pyridyl]-N-(2-hydroxyethyl) benzamide]: the half-maximal inhibitory concentration (IC50) is 485 nM.

Regarding `COc1cc(-c2n[nH]c3nccc(-c4cccc(N)c4)c23)cc(OC)c1OC` [Compound 537, 3-[3-(3,4,5-trimethoxy-phenyl)-1H-pyrazolo[3,4-b]pyridin-4-yl]aniline], the IC50 turned out to be 14800 nM.

As for `COc1ccc(-c2cnc3ccc(NCc4ccco4)nn23)cc1` [229_0144_0280, N-(2-furyl-methyl)-3-(4-methoxyphenyl) imidazo[1,2-b]pyridazin-6-amine], the concentration for half-maximal inhibition (IC50) stood at 3680 nM.

As for `COc1ccc(-c2cnc3ccc(NCc4cccs4)nn23)cc1` [229_0146_0280, 3-(4-methoxyphenyl)-N-(2-thienylmethyl) imidazo[1,2-b]pyridazin-6-amine], the IC50 was 5390 nM.

For `COc1ccc(-c2cnc3ccc(-c4cccnc4)nn23)cc1OC` [Compound 405, 3-(3,4-dimethoxy-phenyl)-6-(3-pyridyl)imidazo [1,2-b]pyridazine], the IC50 was 549 nM.

On to `CC(=O)Nc1cccc(-c2cnc3ccc(-c4cccc(Cl)c4)nn23)c1` [Compound 347, N-[3-[6-(3-chlorophenyl)imidazo[1,2-b]pyridazin-3-yl]phenyl] acetamide], for which the IC50 is 370 nM.

For the compound `OCc1cccc(-c2cnc3ccc(-c4ccccc4)nn23)c1` [Compound 318, [3-(6-phenylimidazo [1,2-b]pyridazin-3-yl)phenyl] methanol], the IC50 is 1750 nM.

As to `COc1ccc(F)cc1-c1ccnc2[nH]nc(C3CCNCC3)c12` [Compound 524, 4-(5-fluoro-2-methoxy-phenyl)-3-(4-piperidyl)-1H-pyrazolo[3,4-b]pyridine], the IC50 came out at 11700 nM.

In the case of `CNc1ccc2ncc(-c3cccc(O)c3)n2n1` [Compound 437_0284, 3-[6-(methyl-amino)imidazo[1,2-b]pyridazin-3-yl]phenol], the IC50 turned out to be 2180 nM.

Consider `COc1cc(-c2cnc3cnc(-c4ccc(N)nc4)cn23)ccc1O` [388_0314_7905, 4-[6-(6-amino-3-pyridyl)imidazo [1,2-a]pyrazin-3-yl]-2-methoxy-phenol], for which the IC50 amounted to 1410 nM.

As for `CC(=O)Nc1cccc(-c2ccc3ncc(-c4ccc5c(c4)OCO5)n3n2)c1` [Compound 274, N-[3-[3-(1,3-benzodioxol-5-yl)imidazo[1,2-b]pyridazin-6-yl]phenyl] acetamide], the IC50 came out at 1110 nM.

For the compound `OCc1cccc(-c2ccc3ncc(-c4ccc5c(c4)OCO5)n3n2)c1` [Compound 370, [3-[3-(1,3-benzodioxol-5-yl)imidazo[1,2-b]pyridazin-6-yl]phenyl] methanol], the 50% inhibitory concentration (IC50) worked out at 332 nM.

The same experiment, now with this note: secondary screen, re-synthesized and expanded compounds.
As for `COc1ccc(-c2cnc3ccc(NCCCO)nn23)cc1OC` [BF000146224, 3-[[3-(3,4-dimethoxy-phenyl)-imidazo[1,2-b]pyridazin-6-yl]-amino]-propan-1-ol], the concentration for half-maximal inhibition (IC50) is 725 nM.

As for `O=C(NCCO)c1ccc(-c2cn3c(-c4ccc(O)cc4)cnc3cn2)cc1` [BF000333882, N-(2-hydroxy-ethyl)-4-[3-(4-hydroxy-phenyl)-imidazo[1,2-a]pyrazin-6-yl]benzamide], the half-maximal inhibitory concentration (IC50) was 740 nM.

With `CN(C)CCCNC(=O)c1ccc(-c2cn3c(-c4ccc(O)cc4)cnc3cn2)cc1` [BF000333874, N-[3-(dimethyl-amino)-propyl]-4-[3-(4-hydroxy-phenyl)-imidazo[1,2-a]pyrazin-6-yl]-benzamide], the IC50 was 705 nM.

For the compound `NC(=O)c1ccc(-c2cnc(N)c(-c3ccc(O)cc3)c2)cc1` [BF000313559, 4-[6-amino-5-(4-hydroxy-phenyl)-3-pyridyl]-benzamide], the IC50 came to 1090 nM.

In the case of `CCCNc1ccc2ncc(-c3ccc(OC)c(OC)c3)n2n1` [BF000147061, 3-(3,4-dimethoxy-phenyl)-N-propyl-imidazo[1,2-b]pyridazin-6-amine], the IC50 was 285 nM.

`CC(=O)Nc1cccc(-c2ccc3ncc(-c4cccc(NC(C)=O)c4)n3n2)c1` [BF000726346, N-[3-[3-(3-acetamido-phenyl)-imidazo[1,2-b]pyridazin-6-yl]phenyl]-acetamide]: the half-inhibitory concentration (IC50) came to 648 nM.

For the compound `CCCNc1ccc2ncc(-c3cccc(O)c3)n2n1` [BF000147075, 3-[6-(propylamino)-imidazo[1,2-b]pyridazin-3-yl]phenol], the 50% inhibitory concentration (IC50) amounted to 592 nM.
